Where a name gives a salt, the structure may show the parent alone.
Each molecule was assayed against T1, SMO (Mus musculus, UniProt P56726) (assay: Smoothened (SMO)/Sonic Hedgehog (SHh) Transient Transcriptional Activation Assay (Gli-luciferase reporter in C3H10T1/2 cells)). Details: 2 uM test compound, SHh 250 ng/ml, 20 hrs.
T1 construct: endogenous in cells; host or cells: C3H10T1/2 (ATCC #CCL-226)
Assay type: cell-based, murine
Procedure, shortened: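 C3H10T1/2 cells transiently transfected with a 10× murine Gli-responsive firefly luciferase reporter plus pEGFP, serum-starved 20 h in 0.5% calf serum, then treated with compounds (2 uM–2 nM final) and 250 ng/ml recombinant human SHh for 20 h at 37 °C. Read-out: Dual-Glo luminescence.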

T1 sequence (P56726 33-793): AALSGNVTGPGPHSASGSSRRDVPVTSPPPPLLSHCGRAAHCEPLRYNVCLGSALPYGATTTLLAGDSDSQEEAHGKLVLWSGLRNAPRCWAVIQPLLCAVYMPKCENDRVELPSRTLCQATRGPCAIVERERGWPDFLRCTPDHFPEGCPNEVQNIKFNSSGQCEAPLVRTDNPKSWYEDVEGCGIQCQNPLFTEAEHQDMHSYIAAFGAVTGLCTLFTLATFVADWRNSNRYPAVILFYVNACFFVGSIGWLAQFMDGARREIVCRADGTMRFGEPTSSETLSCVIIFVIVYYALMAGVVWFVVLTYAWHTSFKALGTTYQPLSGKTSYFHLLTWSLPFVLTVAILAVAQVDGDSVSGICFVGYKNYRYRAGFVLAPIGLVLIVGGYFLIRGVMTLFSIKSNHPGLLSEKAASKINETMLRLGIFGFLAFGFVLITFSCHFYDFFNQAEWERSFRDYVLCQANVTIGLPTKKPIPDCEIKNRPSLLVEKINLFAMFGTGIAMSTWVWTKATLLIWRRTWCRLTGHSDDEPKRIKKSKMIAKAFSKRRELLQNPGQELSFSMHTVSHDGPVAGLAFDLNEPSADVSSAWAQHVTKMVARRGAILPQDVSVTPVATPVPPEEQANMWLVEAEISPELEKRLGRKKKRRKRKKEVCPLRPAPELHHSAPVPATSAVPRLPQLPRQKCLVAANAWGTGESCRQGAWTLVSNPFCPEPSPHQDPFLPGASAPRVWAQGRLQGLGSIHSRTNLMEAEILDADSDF

Question: How did the “SMO % inhibition at 2 uM” value turn out when “N-(3-(5-(Aminomethyl)-1-methyl-1H-benzo[d]imidazol-2-yl)cyclohexyl)-3,5-dimethoxybenzamide and N-(3-(6-(aminomethyl)-1-methyl-1H-benzo[d]imidazol-2-yl)cyclohexyl)-3,5-dimethoxybenzamide [Example 23]” was run?
Answer: Its value is 104%.

Same assay, conditions: C3H 10T1/2, 2 uM test compound, SHh 250 ng/ml, 20 hrs, read-out: SMO % inhibition at 2 uM

Question: `COc1cc(OC)cc(C(=O)NC2CCCC(c3nc4ccc(Br)cc4[nH]3)C2)c1` (stereo not drawn) [Example 17, N-(3-(5-Bromo-1H-benzo[d]imidazol-2-yl)cyclohexyl)-3,5-dimethoxybenzamide] was tested. Which inhibition at 2 µM did it give?
Answer: The inhibition at 2 µM was 103%.

Question: How did the inhibition at 2 µM turn out when `O=C(N[C@@H]1CCC[C@H](c2nc3ccccc3[nH]2)C1)c1ccc(Cl)nc1` [N-((1R,3S)-3-(1H-Benzo[d]imidazol-2-yl)cyclohexyl)-6-chloronicotinamide] was run?
Answer: Its inhibition at 2 µM is 103%.

Question: How did the inhibition at 2 µM turn out when `Cn1c([C@H]2CCC[C@@H](NC(=O)c3ccc4c(c3)OCCO4)C2)nc2ccccc21` [Example 3, N-((1R,3S)-3-(1-methyl-1H-benzo[d]imidazol-2-yl)cyclohexyl)-2,3-dihydrobenzo[b][1,4]dioxine-6-carboxamide] was run?
Answer: The inhibition at 2 µM was 107%.

Question: With `Cc1ccc2[nH]c(C3CCCC(NC(=O)c4ccc5c(c4)OCCO5)C3)nc2c1` (stereo not drawn) [Example 28, N-(3-(5-Methyl-1H-benzo[d]imidazol-2-yl)cyclohexyl]-2,3-dihydrobenzo[b][1,4]dioxine-6-carboxamide] as the molecule, how does the inhibition at 2 µM read?
Answer: Its inhibition at 2 µM is 103%.

Same assay, conditions: C3H 10T1/2, 2 μM test compound, SHh 250 ng/ml, 20 hrs, read-out: SMO CELL % INHIBITION @ 2 μM

Question: Which inhibition at 2 µM does the source give for `Cc1cc2c(cc1C(=O)N[C@@H]1CCC[C@H](c3nc4ccccc4[nH]3)C1)OCCO2` [Example 307, N-[(1R,3S)-3-(1H-benzimidazol-2-yl)cyclohexyl]-7-methyl-2,3-dihydro-1,4-benzodioxine-6-carboxamide] here?
Answer: The inhibition at 2 µM was 90.5%.

Question: How did the inhibition at 2 µM turn out when `[N-]=[N+]=Nc1ccc(C(=O)NC23CCCC(c4nc5cc(C(F)(F)F)ccc5[nH]4)(C2)C3)cc1` [Example 273, 4-azido-N-{5-[5-(trifluoromethyl)-1H-benzimidazol-2-yl]bicyclo[3.1.1]hept-1-yl}benzamide] was run?
Answer: The inhibition at 2 µM was 93.2%.

Question: Which inhibition at 2 µM does the source give for `O=C(NC1CCCC(c2nc3ccccc3[nH]2)C1)c1ccc2[nH]c(=O)[nH]c(=O)c2c1` (stereo not drawn) [Example 158, N-[3-(1H-benzimidazol-2-yl)cyclohexyl]-2,4-dioxo-1,2,3,4-tetrahydroquin-azoline-6-carboxamide triflouroacetate] here?
Answer: Its inhibition at 2 µM is 73%.

Question: With `Cc1cc2nc(C3CCCC(NC(=O)c4ccc5c(c4)OCCO5)C3)[nH]c2cc1C` (stereo not drawn) [Example 80, N-[3-(5,6-dimethyl-1H-benzimidazol-2-yl)cyclohexyl]-2,3-dihydro-1,4-benzodioxine-6-carboxamide HCl] as the molecule, how does the inhibition at 2 µM read?
Answer: Its inhibition at 2 µM is 103%.

Question: `CN1C(=O)COc2ccc(C(=O)N[C@H]3CCC[C@H](c4nc5ccccc5[nH]4)C3)cc21` [Example 249, N-(3-(1H-benzo[d]imidaz-ol-2-yl)cyclohexyl)-4-methyl-3-oxo-3,4-dihydro-2H-benzo[d][1,4]ox-azine-6-carboxamide HCl] was tested. Which inhibition at 2 µM did it give?
Answer: Its inhibition at 2 µM is 109%.

Question: For `O=C(N[C@@H]1CCC[C@H](c2nc3ccccc3[nH]2)C1)c1ccc2c(c1)OCCO2` [Example 63, N-[(1R,3S)-3-(1H-benzimidazol-2-yl)cyclohexyl]-2,3-dihydro-1,4-benzodioxine-6-carboxamide HCl], which inhibition at 2 µM is on record?
Answer: Its inhibition at 2 µM is 108%.

Question: How did the inhibition at 2 µM turn out when `O=C(NC12CCCC(c3nc4cc(C(F)(F)F)ccc4[nH]3)(C1)C2)c1ccc(C(=O)c2ccccc2)cc1` [Example 275, 4-benzoyl-N-{5-[5-(trifluoromethyl)-1H-benzimidazol-2-yl]bicyclo[3.1.1]hept-1-yl}benzamide] was run?
Answer: The inhibition at 2 µM was 89%.

Question: How did the inhibition at 2 µM turn out when `O=C(N[C@@H]1CCC[C@H](c2nc3ccccc3[nH]2)C1)[C@@H]1COc2ccccc2O1` [Example 185, (2S)-N-[(1R,3S)-3-(1H-benzimidazol-2-yl)cyclohexyl]-2,3-dihydro-1,4-benzodioxine-2-carboxamide triflouroacetate] was run?
Answer: Its inhibition at 2 µM is 81%.

Question: With `Cn1c(C23CCCC(NC(=O)c4ccc5c(c4)OC(F)(F)O5)(C2)C3)nc2ccccc21` [Example 250, 2,2-difluoro-N-(5-(1-methyl-1H-benzo[d]imidaz-ol-2-yl)bicyclo[3.1.1]heptan-1-yl)benzo[d][1,3] dioxole-5-carboxamide] as the molecule, how does the inhibition at 2 µM read?
Answer: The inhibition at 2 µM was 94%.

Question: Which inhibition at 2 µM does the source give for `Cc1[nH]c2ccc(C(=O)N[C@@H]3CCC[C@H](c4nc5ccccc5[nH]4)C3)cc2c1C` [Example 192, N-[(1R,3S)-3-(1H-benzimidazol-2-yl)cyclohexyl]-2,3-dimethyl-1H-indole-5-carboxamide triflouroacetate] here?
Answer: Its inhibition at 2 µM is 109%.

Question: `O=C(N[C@@H]1CCC[C@H](c2nc3ccccc3[nH]2)C1)c1cnc2c(c1)OCCO2` [Example 243, N-((1R,3S)-3-(1H-benzo[d]imidaz-ol-2-yl)cyclohexyl)-2,3-dihydro-[1,4]dioxino[2,3-b]pyridine-7-carboxamide] was tested. Which inhibition at 2 µM did it give?
Answer: The inhibition at 2 µM was 96%.

Question: With `O=C(N[C@@H]1CCC[C@H](c2nc3ccccc3[nH]2)C1)[C@H]1CCc2ccccc2O1` [Example 207, (2R)-N-[(1R,3S)-3-(1H-benzimidazol-2-yl)cyclohexyl]-chromane-2-carboxamide triflouroacetate] as the molecule, how does the inhibition at 2 µM read?
Answer: Its inhibition at 2 µM is 107%.

Question: `Cc1ccc(C(=O)N[C@@H]2CCC[C@H](c3nc4ccccc4[nH]3)C2)c2ccccc12` [Example 183, N-[(1R,3S)-3-(1H-benzimidazol-2-yl)cyclohexyl]-4-methyl-1-naphthamide triflouroacetate] was tested. Which inhibition at 2 µM did it give?
Answer: The inhibition at 2 µM was 95%.

Question: Which inhibition at 2 µM does the source give for `O=C(NC1CCCC(c2nc3cc(F)c(F)cc3[nH]2)C1)c1ccc2c(c1)OCCO2` (stereo not drawn) [Example 83, N-[3-(5,6-difluoro-1H-benzimidazol-2-yl)cyclohexyl]-2,3-dihydro-1,4-benzodioxine-6-carboxamide HCl] here?
Answer: Its inhibition at 2 µM is 103%.

Question: For `Cn1c([C@H]2CCC[C@@H](NC(=O)c3ccc4c(c3)CNCC4)C2)nc2ccccc21` [Example 310, N-[(1R,3S)-3-(1-methyl-1H-benzimidazol-2-yl)cyclohexyl]-1,2,3,4-tetrahydroiso-quinoline-7-carboxamide HCl], which inhibition at 2 µM is on record?
Answer: Its inhibition at 2 µM is 91.6%.

Question: `O=C(N[C@@H]1CCC[C@H](c2nc3cc(C(F)(F)F)ccc3[nH]2)C1)c1n[nH]c2c1CCCC2` [Example 281, N-{(1R,3S)-3-[5-(trifluoromethyl)-1H-benzimidazol-2-yl]cyclohexyl]-4,5,6,7-tetrahydro-1H-indazol-3-carboxamide HCl] was tested. Which inhibition at 2 µM did it give?
Answer: The inhibition at 2 µM was 98.5%.

Question: With `COc1ncccc1C(=O)NC1CCCC(c2nc3ccccc3[nH]2)C1` (stereo not drawn) [Example 109, N-[3-(1H-benzimidazol-2-yl)cyclohexyl]-2-methoxynico-tinamide triflouroacetate] as the molecule, how does the inhibition at 2 µM read?
Answer: The inhibition at 2 µM was 97%.

Question: `O=C(NC1CCCC1)N[C@@H]1CCC[C@H](c2nc3ccccc3[nH]2)C1` [Example 226, 1-((1R,3S)-3-(1H-benzo[d]imidaz-ol-2-yl)cyclohexyl)-3-cyclopentylurea] was tested. Which inhibition at 2 µM did it give?
Answer: The inhibition at 2 µM was 63%.

Question: How did the inhibition at 2 µM turn out when `O=C(N[C@@H]1CCC[C@H](c2nc3ccccc3[nH]2)C1)c1ccc2nonc2c1` [Example 190, N-[(1R,3S)-3-(1H-benzimidazol-2-yl)cyclohexyl]-2,1,3-benzoxadiazole-5-carboxamide triflouroacetate] was run?
Answer: Its inhibition at 2 µM is 37%.

Reference: patent publication US20100029615A1, “BENZIMIDAZOLE DERIVATIVES” (priority 2006, published 2010)
